As a reminder, the Kd is a measure of binding affinity in units of concentration. A high value points to lower affinity.

Experimental findings from paper PMC6997888, “Salicylic Acid Targets Protein Phosphatase 2A to Attenuate Growth in Plants” (Current Biology, 2020) are described below.

For one assay, the target named is T1, PP2AA1 (Arabidopsis thaliana, UniProt Q38845).
T1 construct: recombinant His-PP2AA1 (pET28a, coding region)
T1 sequence (Q38845 1-588): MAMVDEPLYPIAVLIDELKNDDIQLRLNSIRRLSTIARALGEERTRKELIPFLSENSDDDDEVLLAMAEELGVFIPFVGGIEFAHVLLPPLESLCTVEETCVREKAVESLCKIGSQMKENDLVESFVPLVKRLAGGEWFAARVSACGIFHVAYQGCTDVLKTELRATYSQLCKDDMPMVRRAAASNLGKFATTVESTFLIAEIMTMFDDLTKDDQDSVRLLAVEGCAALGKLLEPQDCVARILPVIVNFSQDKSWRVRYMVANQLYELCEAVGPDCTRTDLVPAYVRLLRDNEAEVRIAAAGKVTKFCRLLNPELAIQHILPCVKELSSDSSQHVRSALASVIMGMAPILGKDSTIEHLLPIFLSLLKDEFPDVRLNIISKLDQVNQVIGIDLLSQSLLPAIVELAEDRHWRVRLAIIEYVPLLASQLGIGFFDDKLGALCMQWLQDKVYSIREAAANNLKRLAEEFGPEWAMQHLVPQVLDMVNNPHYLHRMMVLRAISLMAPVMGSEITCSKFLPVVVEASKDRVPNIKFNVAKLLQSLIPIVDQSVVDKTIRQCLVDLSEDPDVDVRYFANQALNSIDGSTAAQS
Description: SPR, steady state; SA-f immobilized on CM5 chip, His-PP2AA1 flowed over. The format is binding. The text has this: SPR, steady state; SA-f immobilized on CM5 chip, His-PP2AA1 flowed over on PP2AA1 | An active synthetic SA analog (SA-f) was immobilized on a CM-5 sensor chip, and different concentrations of His-PP2AA1 were applied
In general terms: In SPR one partner is held on a chip, and binding of the other changes the refractive index at the surface.

For a further assay, the target named is T2, PP2AA3 (Arabidopsis thaliana, UniProt Q38951).
T2 construct: recombinant His-PP2AA3 (pET28a, coding region)
T2 sequence (Q38951 1-587): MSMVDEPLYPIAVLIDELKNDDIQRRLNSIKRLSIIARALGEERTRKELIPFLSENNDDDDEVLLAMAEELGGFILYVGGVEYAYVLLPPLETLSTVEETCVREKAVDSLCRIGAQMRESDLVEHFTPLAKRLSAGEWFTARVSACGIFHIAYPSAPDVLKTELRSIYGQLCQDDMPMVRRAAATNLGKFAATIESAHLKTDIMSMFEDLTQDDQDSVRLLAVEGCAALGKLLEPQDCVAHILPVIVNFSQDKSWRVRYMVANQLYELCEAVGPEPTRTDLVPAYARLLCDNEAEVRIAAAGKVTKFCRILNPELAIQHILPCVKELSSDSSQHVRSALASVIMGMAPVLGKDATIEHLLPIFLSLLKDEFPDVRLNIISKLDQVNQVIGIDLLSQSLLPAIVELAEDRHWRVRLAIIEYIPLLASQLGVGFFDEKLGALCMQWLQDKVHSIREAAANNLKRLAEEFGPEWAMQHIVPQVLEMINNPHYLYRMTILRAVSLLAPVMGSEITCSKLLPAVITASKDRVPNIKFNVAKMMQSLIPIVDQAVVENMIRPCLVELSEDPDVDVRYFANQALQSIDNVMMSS
Description: SPR, steady state; SA-f immobilized on CM5 chip, His-PP2AA3 flowed over. The format is binding. The text has this:
SPR, steady state; SA-f immobilized on CM5 chip, His-PP2AA3 flowed over on PP2AA3 | The same sensor chip as above was used, and different concentrations of His-PP2AA3 were applied.

Take `NCCCCCOc1ccc(O)c(C(=O)O)c1` [SA-f, 5-((5-aminopentyl)oxy)-2-hydroxybenzoic acid]: the Kd on PP2AA1 worked out at 3620 nM; on PP2AA3, 1920 nM.
